Data from ChEMBL document CHEMBL1135160, “Development of a genetic selection for catalytic antibodies” (Bioorg Med Chem Lett, 2002).

Legend:
Escherichia coli = assay: Concentration required to sustain growth of Escherichia coli HDU-78; 1-10 nM; format: functional, organism-based
[1] = Kinetic parameter for rate of conversion to PABA was determined; format: ADME

Km [1] [µM] | k cat [1] [s⁻¹] | Compound | Concentration (Escherichia coli) [nM]
 |  | Nc1ccc(C(=O)O)cc1 | 10
150 | 0.000115 | CC(=O)CC(C)(O)CCOC(=O)Nc1ccc(C(=O)O)cc1 (stereo not drawn) | 
